From US9095623B2, “Terminally-functionalized conjugates and uses thereof” (SmartCells, Inc., priority 2009, dated 2015)

Experiment: Blood glucose depression profile after subcutaneous injection in fasted normal non-diabetic rats
Format: in vivo, Male Sprague-Dawley rats
Description: Subcutaneous injections of the insulin-dextran were administered using 0.25 ml of a sterilized 1×PBS solution ([…] of equivalent insulin/ml) behind the neck of fasted normal non-diabetic rats (Male Sprague-Dawley, 200-250 g, n=4). Blood samples were collected via tail vein bleeding at −15 and 0 minutes, and at 15, 30, 45, 60, 90, 120, 180, 240, 300 and 360 minutes after injection.
This example evaluates the in vivo pharmacodynamic profile of subcutaneously administered insulin-glycogen. The insulin-glycogen conjugate was synthesized according to Example 8. The bioactivity of the insulin-glycogen conjugate was evaluated by injecting a 2.5 equivalent U of insulin/kg dose behind the neck of fasted normal non-diabetic rats (Male Sprague-Dawley, 200-250 g, n=4). Blood samples were collected via tail vein bleeding at −15 and 0 minutes, and at 15, 30, 45, 60, 90, 120, 180, 240, 300 and 360 minutes after injection. […] This rapid action and elimination profile is due to the rapid enzymatic digestion of the high MW glycogen polymer chain following subcutaneous injection.

[1] = 0.25 ml of 20 U of equivalent insulin/ml, FIG. 5

Substance | glucose lowering as compared to the insulin-dextran conjugates (2.5 equivalent U of insulin/kg, FIG. 6) | time serum glucose levels remain depressed post injection [1] | time to reach the glucose nadir (Tnadir) [1]
insulin-glycogen: comparative conjugate of insulin and oyster glycogen (Type II) made by CNBr coupling, Example 8 | lower glucose levels much more rapidly and to a greater extent |  | 
insulin-dextran: comparative conjugate of recombinant human insulin and dextran (MW 70K) made by CNBr coupling |  | at least five | about 3 hours
